Experimental data: patent publication US9090593B2, “Bicyclic compounds as Pim inhibitors” (AMGEN INC., priority 2010, dated 2015)

Legend:
[1] = biological target: T1, full length recombinant Pim-1 protein (Homo sapiens, UniProt P11309); assay: Pim-1 enzyme assay (HTRF, phosphorylation of biotinylated-BAD (S112) peptide); type: biochemical; conditions: read-out: Pim_1_IC50
T1 construct: by full length recombinant Pim-1, Pim-2, or Pim-3 protein; hexahistidine tag followed by a thrombin cleavage site (N); made in house; host or cells: Sf9 (baculovirus) or E. coli (pET28)
T1 sequence (P11309 whole entry): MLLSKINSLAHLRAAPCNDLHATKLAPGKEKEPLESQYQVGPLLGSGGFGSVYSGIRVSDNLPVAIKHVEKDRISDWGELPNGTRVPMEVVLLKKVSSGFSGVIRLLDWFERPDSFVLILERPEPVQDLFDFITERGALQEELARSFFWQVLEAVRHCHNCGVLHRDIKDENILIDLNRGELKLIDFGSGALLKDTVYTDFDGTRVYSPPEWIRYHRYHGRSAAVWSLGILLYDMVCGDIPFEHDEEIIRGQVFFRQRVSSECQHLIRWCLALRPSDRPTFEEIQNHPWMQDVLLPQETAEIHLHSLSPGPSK
Description: (§1) These cDNAs were used as templates in PCR reactions to produce full-length DNA clones of the PIMs. […] PCR products were digested with […] and EcoRI for Pim-1 and BamHI and EcoRI for Pim-2 and ligated into a modified baculovirus transfer vector (pFastBac1) cleaved with BamHI and EcoRI. For bacterial expression, the same cleaved PCR products encoding Pim-1 or Pim-2 were ligated into a modified E. coli expression vector pET28(a) cleaved with BamHI and EcoRI Amino-terminal hexahistidine tags followed by a thrombin cleavage site were previously added to the vectors using standard methods of molecular biology. Recombinant baculoviruses expressing Pim-1 or Pim-2 were made using standard methods (Fastbac manual, Invitrogen, Carlsbad, Calif.). Infection of Sf9 cells was done at an m.o.i. of greater than 5 for 24-48 h. Cells were harvested by centrifugation and frozen at −80 C. For E. coli expression, cells carrying pET28-His6-Th-Pim-1 or pET28-His6-Th-Pim-2 were picked from a single colony and grown o/n in LB media. The o/n culture was used to inoculate a 2 liter flask with 500 mL media. This was grown o/n and used to inoculate 15-20 liters of Terrific Broth in a New Brunswick Scientific fermentor. The E. coli were grown at 37° C. to and OD600>1.6. The temperature was dropped to 18° C. and o/n expression was induced with 0.5 mM IPTG. Cells were harvested by centrifugation and frozen at −80° C.
(§2) This step was repeated 3× and the resin was transferred to a 2.5 cm glass column. Ten column volumes of wash buffer (0.05 M HEPES, pH 8.0, 0.1 M NaCl, 0.01 M 2-mercaptoethanol, 10% (w/v) glycerol) were applied to the resin followed by 10 column volumes of elution buffer (0.05 M HEPES, pH 8.0, 0.25 M NaCl, 0.01 M 2-mercaptoethanol, 10% (w/v) glycerol, 0.1 M imidazole). Fractions were analyzed by SDS-PAGE and those containing the protein of interest were pooled and concentrated. The concentrated protein was applied to an Amersham Superdex 75 (XK 26/60) column equilibrated in 0.025 M Tris-HCl, pH 7.5, 0.1 M NaCl, 0.01 M 2-mercaptoethanol, 10% (w/v) glycerol. […] Fractions containing the monomeric protein of interest were pooled, concentrated to ˜2 mg/mL, and stored at −80° C.
(§3) The phosphorylation of biotinylated-BAD (S112) peptide by full length recombinant Pim-1, Pim-2, or Pim-3 protein was detected with streptavidin:Allophycocyanin (APC) conjugate and a europium (Eu) labeled antibody directed against phosphorylated-BAD (S112). […] The fluorescence is directly proportional to the amount of phosphorylated BAD peptide present in the reaction.
(§4) A reference compound was included on each assay plate in order to validate that plate; on one plate of every assay run, two additional reference compounds were included.
(§5) The final buffer conditions were as follows: 60 mM Hepes, pH 7.0, 0.05% BSA, 2 mM DTT. […] The reaction was stopped by the addition of 3 mM EDTA, and fluorescence was measured by an HTRF® Rubystar microplate reader. For each plate, percent of control (POC) values were calculated for each well. Values for the IC50 IP were estimated using a standard 4-parameter logistic model.

[2] = biological target: T2, full length recombinant Pim-2 protein (Homo sapiens, UniProt Q9P1W9); assay: Pim-2 enzyme assay (HTRF, phosphorylation of biotinylated-BAD (S112) peptide); type: biochemical; conditions: read-out: Pim2_IC50
T2 construct: by full length recombinant Pim-1, Pim-2, or Pim-3 protein; hexahistidine tag followed by a thrombin cleavage site (N); made in house; host or cells: Sf9 (baculovirus) or E. coli (pET28)
T2 sequence (Q9P1W9 whole entry): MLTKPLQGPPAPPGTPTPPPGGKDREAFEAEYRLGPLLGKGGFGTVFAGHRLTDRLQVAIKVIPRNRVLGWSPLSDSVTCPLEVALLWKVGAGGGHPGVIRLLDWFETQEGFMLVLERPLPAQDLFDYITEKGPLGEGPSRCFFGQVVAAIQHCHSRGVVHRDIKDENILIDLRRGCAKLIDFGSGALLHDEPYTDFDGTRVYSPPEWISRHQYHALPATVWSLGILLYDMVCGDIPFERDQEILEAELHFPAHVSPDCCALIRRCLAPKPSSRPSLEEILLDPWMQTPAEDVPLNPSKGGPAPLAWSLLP
Description: as §1, §2, §3, §4, §5

Row | IC50 [1] [nM] | IC50 [2] [nM] | Compound
1 | 20 | 67 | CN(C)c1nc(-c2n[nH]c3ccc(Nc4c(F)cccc4F)cc23)cc(=O)[nH]1 [Example 285, 6-(5-((2,6-difluorophenyl)amino)-1H-indazol-3-yl)-2-(dimethylamino) pyrimidin-4(3H)-one]
2 | 581 | > 1000 | COc1cnnc(-c2c[nH]c3ccc(-c4ccccc4F)nc23)c1 [Example 286, 5-(2-fluorophenyl)-3-(5-methoxypyridazin-3-yl)-1H-pyrrolo[3,2-b]pyridine]
3 | 364 | 968 | NC1CCN(c2cc(-c3c[nH]c4ccc(-c5ccccc5F)nc34)nc(O)n2)CC1 [Example 288, 4-(4-aminopiperidin-1-yl)-6-(5-(2-fluorophenyl)-1H-pyrrolo[3,2-b]pyridin-3-yl)pyrimidin-2-ol]
4 | 34 | 75 | N#Cc1cc(-c2ccc3[nH]cc(-c4cncc(O[C@@H]5CCCNC5)n4)c3c2)ccc1F [Example 295]
5 | 37 | 55 | N#Cc1ccc(-c2ccc3[nH]cc(-c4cncc(O[C@@H]5CCCNC5)n4)c3c2)cc1F [Example 296]
6 | 31 | 234 | c1cc(OC2CCCC2)nc(-c2ccc3[nH]cc(-c4cncc(O[C@@H]5CCCNC5)n4)c3c2)c1 [Example 298]
7 | 42 | 115 | c1cnn(-c2cnc(-c3ccc4[nH]cc(-c5cncc(O[C@@H]6CCCNC6)n5)c4c3)cn2)c1 [Example 300]
8 | 52 | 619 | CC1CCN(c2cccc(-c3ccc4[nH]cc(-c5cncc(O[C@@H]6CCCNC6)n5)c4c3)n2)CC1 [Example 304]
9 | 234 | 515 | CCNC(=O)c1ccc(C)c(-c2ccc3[nH]cc(-c4cncc(O[C@@H]5CCCNC5)n4)c3c2)c1 [Example 313]
10 | 288 | 428 | Cc1ccc(C(=O)NC2CCC2)cc1-c1ccc2[nH]cc(-c3cncc(O[C@@H]4CCCNC4)n3)c2c1 [Example 314]
11 | 53 | 297 | COc1ccc(Cl)cc1-c1ccc2[nH]cc(-c3cncc(O[C@@H]4CCCNC4)n3)c2c1 [Example 317]
12 | 35 | 347 | c1cc2[nH]cc(-c3cncc(O[C@@H]4CCCNC4)n3)c2cc1-c1cncc(OC2CCCC2)n1 [Example 318]
13 | 24 | 68 | CN(C)c1cnc(-c2ccc3[nH]cc(-c4cncc(O[C@@H]5CCCNC5)n4)c3c2)cn1 [Example 319]
14 | 31 | 99 | CC(C)c1ccc(-c2ccc3[nH]cc(-c4cncc(O[C@@H]5CCCNC5)n4)c3c2)cc1 [Example 322]
15 | 21 | 46 | O=C(O)c1cccc(-c2ccc3[nH]cc(-c4cncc(O[C@@H]5CCCNC5)n4)c3c2)c1 [Example 325]
16 | 28 | 141 | COc1ncccc1-c1ccc2[nH]cc(-c3cncc(O[C@@H]4CCCNC4)n3)c2c1 [Example 328]
17 | 83 | 514 | COc1ccc(OC)c(-c2ccc3[nH]cc(-c4cncc(O[C@@H]5CCCNC5)n4)c3c2)c1 [Example 329]
18 | 54 | 268 | Cc1cccc(-c2ccc3[nH]cc(-c4cncc(O[C@@H]5CCCNC5)n4)c3c2)c1C [Example 330]
19 | 43 | 156 | CC(C)Cc1ccc(-c2ccc3[nH]cc(-c4cncc(O[C@@H]5CCCNC5)n4)c3c2)cc1 [Example 332]
20 | 72 | 149 | CS(=O)(=O)Nc1cc(-c2ccc3[nH]cc(-c4cncc(O[C@@H]5CCCNC5)n4)c3c2)cnc1Cl [Example 334]
21 | 56 | 592 | Nc1ccc(Oc2ncccc2-c2ccc3[nH]cc(-c4cncc(O[C@@H]5CCCNC5)n4)c3c2)cc1 [Example 337]
22 | 42 | 260 | c1cc2[nH]cc(-c3cncc(O[C@@H]4CCCNC4)n3)c2cc1-c1cncc(C2CCCN2)c1 (some centres unmarked) [Example 340]
23 | 159 | > 1000 | COc1cc(C#N)c(-c2ccc3[nH]cc(-c4cncc(O[C@@H]5CCCNC5)n4)c3c2)cc1OC(C)C [Example 342]

Row | IC50 [1] [nM] | IC50 [2] [nM] | Compound
24 | 105 | 363 | COc1cc(C#N)cc(-c2ccc3[nH]cc(-c4cncc(O[C@@H]5CCCNC5)n4)c3c2)c1OC [Example 346]
25 | 364 | > 1000 | CCCOc1c(OC)cc(C#N)cc1-c1ccc2[nH]cc(-c3cncc(O[C@@H]4CCCNC4)n3)c2c1 [Example 348]
26 | 30 | 290 | CC(=O)Nc1cc(-c2ccc3[nH]cc(-c4cncc(O[C@@H]5CCCNC5)n4)c3c2)cc(C(F)(F)F)c1 [Example 349]
27 | 30 | 133 | CC(C)Oc1ccc(-c2ccc3[nH]cc(-c4cncc(O[C@@H]5CCCNC5)n4)c3c2)cc1C#N [Example 352]
28 | 159 | 889 | Cc1ccc(C(F)(F)F)cc1-c1ccc2[nH]cc(-c3cncc(O[C@@H]4CCCNC4)n3)c2c1 [Example 353]
29 | 834 | > 1000 | COc1cc(C#N)cc(-c2ccc3[nH]cc(-c4cncc(O[C@@H]5CCCNC5)n4)c3c2)c1OC(C)C [Example 354]
30 | 57 | 253 | FC(F)(F)COc1cncc(-c2n[nH]c3ccc(-c4cncc(C5CC5)n4)cc23)n1 [Example 363]
31 | 126 | > 1000 | c1cc(C2CC2)nc(-c2ccc3[nH]cc(-c4cncc(C5CC5)n4)c3c2)n1 [Example 370]
32 | 26 | 113 | c1cc(C2CC2)nc(-c2c[nH]c3ccc(-c4cncc(C5CC5)n4)cc23)n1 [Example 371]
33 | 75 | 243 | Cn1nccc1-c1ccc2[nH]nc(-c3cncc(O[C@@H]4CCCNC4)n3)c2c1 [Example 375]
34 | 21 | 275 | COc1cncc(-c2n[nH]c3ccc(-c4nccc(N5CCOC[C@@H]5C)n4)cc23)n1 [Example 376]
35 | 55 | 231 | COc1cncc(-c2n[nH]c3ccc(-c4nccc(C(C)C)n4)cc23)n1 [Example 377]
36 | 627 | > 1000 | COc1cncc(-c2n[nH]c3ccc(-c4cc(C(F)(F)F)ccn4)cc23)n1 [Example 378]
37 | 67 | > 1000 | CC(C)Oc1cncc(-c2n[nH]c3ccc(-c4nccc(N5CCOC[C@@H]5C)n4)cc23)n1 [Example 380]
38 | 50 | 335 | COc1cncc(-c2n[nH]c3ccc(-c4nccc(NC5CC5)n4)cc23)n1 [Example 382]
39 | 56 | 457 | FCCOc1cncc(-c2n[nH]c3ccc(-c4nccc(C5CC5)n4)cc23)n1 [Example 385]
40 | 93 | 230 | CC(C)Oc1cncc(-c2n[nH]c3ccc(-c4cnn(C(C)C)c4)cc23)n1 [Example 387]
41 | 116 | 124 | COc1cncc(-c2n[nH]c3ccc(-c4cnn(C(C)C)c4)cc23)n1 [Example 388]
42 | 173 | 200 | O=C(NC1CC1)c1ccc(F)c(-c2ccc3[nH]nc(-c4cncc(OCCF)n4)c3c2)c1 [Example 389]
43 | 119 | 241 | NC(=O)c1ccc(F)c(-c2ccc3[nH]nc(-c4cncc(OCCF)n4)c3c2)c1 [Example 390]
44 | > 1000 | > 1000 | c1cc2[nH]nc(-c3cncc(O[C@@H]4CNCCC45CC5)n3)c2cc1N1CCOCC1 [Example 399]
45 | 30 | 58 | C[C@@H]1CN(c2ccc3[nH]nc(-c4cncc(O[C@H]5CNCCC56CC6)n4)c3c2)CCO1 [Example 401]
46 | 30 | 39 | C[C@H]1COCCN1c1ccc2[nH]nc(-c3cncc(O[C@H]4CNCCC45CC5)n3)c2c1 [Example 402]
